Assay results: US6596720B1, “Anti-HIV compositions” (priority 1999, dated 2003)

Legend:
[1] = test system: HIV IIIB strain; assay: Antiviral activity against HIV IIIB strain in MT-2 cells (fluorescent antibody assay); format: cell-based; conditions: MOI 0.05, 2 days
Method: (§1) Antiviral activity against HIV GUN-1 strain (Jpn. J. Cancer Res., vol. 78, 11-15(1987)) and HIV IIIB strain (Science, vol. 224, 497-500(1984)) in MT-2 cells and MT-4 cells (Nature, vol. 294, 770-771 (1981))
(§2) MT-2 cells and MT-4 cells were transferred to RPMI 1640 medium (supplemented with 10% fetal calf serum (FCS)) at 2×10^5 cells/ml. […] The cells were cultured at 37° C. One hour later, the cells were infected with HIV at multiplicity of infection of 0.05 (MOI=0.05) and cultured at 37° C. for 2 days. Smears of MT-2 cells and MT-4 cells were prepared and assayed for HIV-positive cells by fluorescent antibody assay (Science, vol. 229, 563(1985)). 3′-Azide-3′-deoxythymidine (hereinafter abbreviated as AZT) was used as a positive control.
(§3) The relative infection rate (%), expressed as a percentage, was calculated from the number of HIV-infected cells in the drug-treated group relative to the number of infected cells in the drug-free solution-treated group as a control group by the following equation:
(§4) Relative infection rate (%)=(N1/N2)×100
(§5) in which N1 is the number of HIV-positive cells in the test drug-treated group, and N2 is the number of HIV-positive cells in the control group.

[2] = test system: HIV GUN-1 strain; assay: Antiviral activity against HIV GUN-1 strain in MT-4 cells (fluorescent antibody assay); format: cell-based; conditions: HIV GUN-1, MT-4 cells, MOI 0.05, 2 days
Method: as §1, §2, §3, §4, §5

[3] = test system: HIV GUN-1 strain; assay: Antiviral activity against HIV GUN-1 strain in MT-2 cells (fluorescent antibody assay); format: cell-based; conditions: HIV GUN-1, MT-2 cells, MOI 0.05, 2 days
Method: as §1, §2, §3, §4, §5

[4] = test system: HIV IIIB strain; assay: Antiviral activity against HIV IIIB strain in MT-4 cells (fluorescent antibody assay); format: cell-based; conditions: MOI 0.05, 2 days
Method: as §1, §2, §3, §4, §5

[5] = test system: MT-4 cells; assay: Cytotoxicity against MT-4 cells (trypan blue exclusion); format: cell-based; conditions: 2 days, relative to control group
Method: (§6) Cytotoxicity Against MT-2 Cells and MT-4 Cells
(§7) MT-2 cells and MT-4 cells were transferred to RPMI 1640 medium (supplemented with 10% FCS) at 2×10^5 cells/ml. […] The cells were cultured at 37° C. Two days later, the trypan blue exclusion test was carried out and the number of living cells in each group was counted.
(§8) Relative survival rate (%), expressed as a percentage, was calculated from the number of living cells in the test drug-treated group relative to the number of living cells in the drug-free solution-treated group as a control group, by the following equation:
(§9) Relative survival rate (%)=(N3/N4)×100
(§10) in which N3 is the number of living cells in the test drug-treated group, and N4 is the number of living cells in the control group.

[6] = test system: MT-2 cells; assay: Cytotoxicity against MT-2 cells (trypan blue exclusion); format: cell-based; conditions: 2 days, relative to control group
Method: as §6, §7, §8, §9, §10

[7] = test system: SD rats
[8] = test system: beagle dogs
[9] = test system: HIV GUN-1 strain; assay: Antiviral activity against HIV GUN-1 strain in C8166 cells (syncytia count); format: cell-based; conditions: HIV GUN-1, C8166 cells, MOI 0.25, 2 days
Method: Antiviral Activity Against HIV GUN-1 Strain in C8166 Cells (Salahuddinn et al., Virology, vol. 129, 51-64(1983))
C8166 cells were transferred to RPMI 1640 medium (supplemented with 10% FCS) at 2×10^5 cells/ml. […] The cells were cultured at 37° C. One hour later, the cells were infected with HIV at multiplicity of infection (MOI) of 0.25 (MOI=0.25) and cultured at 37° C. for 2 days. Then the number of syncytia induced by HIV infection was determined.
Relative infection rate (%), expressed as a percentage, was calculated from the number of HIV-infected cells in the test drug-treated group relative to the number of HIV-infected cells in the drug-free solution-treated group as a control group, by the following equation:
Relative infection rate (%)=(N5/N6)×100
in which N5 is the number of syncytia in the test drug-treated group, and N6 is the number of syncytia in the control group.

## Cc1cn([C@H]2C[C@H](N=[N+]=[N-])[C@@H](CO)O2)c(=O)[nH]c1=O [AZT, 3′-Azide-3′-deoxythymidine]
[1]; drug 0.001 μg/ml
  Relative infection rate (%): 100%
[1]; drug 0.01 μg/ml
  Relative infection rate (%): 20%
[1]; drug 0.1 μg/ml
  Relative infection rate (%): 10%
[1]; drug 1 μg/ml
  Relative infection rate (%): 0%
[1]; drug 10 μg/ml
  Relative infection rate (%): 0%
[1]; drug 100 μg/ml
  Relative infection rate (%): 0%
[1]; drug 1000 μg/ml
  Relative infection rate (%): 0%
[2]; drug 0.001 μg/ml
  Relative infection rate (%): 100%
[2]; drug 0.01 μg/ml
  Relative infection rate (%): 40%
[2]; drug 0.1 μg/ml
  Relative infection rate (%): 4%
[2]; drug 1 μg/ml
  Relative infection rate (%): 0%
[2]; drug 10 μg/ml
  Relative infection rate (%): 0%
[2]; drug 100 μg/ml
  Relative infection rate (%): 0%
[2]; drug 1000 μg/ml
  Relative infection rate (%): 0%
[3]; drug 0.001 μg/ml
  Relative infection rate (%): 100%
[3]; drug 0.01 μg/ml
  Relative infection rate (%): 30%
[3]; drug 0.1 μg/ml
  Relative infection rate (%): 10%
[3]; drug 1 μg/ml
  Relative infection rate (%): 0%
[3]; drug 10 μg/ml
  Relative infection rate (%): 0%
[3]; drug 100 μg/ml
  Relative infection rate (%): 0%
[3]; drug 1000 μg/ml
  Relative infection rate (%): 0%
[4]; drug 0.001 μg/ml
  Relative infection rate (%): 100%
[4]; drug 0.01 μg/ml
  Relative infection rate (%): 25%
[4]; drug 0.1 μg/ml
  Relative infection rate (%): 5%
[4]; drug 1 μg/ml
  Relative infection rate (%): 0%
[4]; drug 10 μg/ml
  Relative infection rate (%): 0%
[4]; drug 100 μg/ml
  Relative infection rate (%): 0%
[4]; drug 1000 μg/ml
  Relative infection rate (%): 0%
[5]; drug 10 μg/ml
  Relative survival rate (%): 100%
[5]; drug 100 μg/ml
  Relative survival rate (%): 100%
[5]; drug 1000 μg/ml
  Relative survival rate (%): 84%
[6]; drug 10 μg/ml
  Relative survival rate (%): 100%
[6]; drug 100 μg/ml
  Relative survival rate (%): 100%
[6]; drug 1000 μg/ml
  Relative survival rate (%): 100%

## Cl.N=C1CCCN1Cc1[nH]c(=O)[nH]c(=O)c1Cl [Compound 1, 5-Chloro-6-(2-iminopyrrolidin-1-yl)methyl-2,4(1H,3H)-pyrimidinedione Hydrochloride]
[7]; SD rats, FTD + compound 1 versus FTD alone
  Change of the maximum tolerated dose of FTD by compound 1: approximately tripled
[8]; beagle dogs, FTD + compound 1 versus FTD alone
  Change of the maximum tolerated dose of FTD by compound 1: approximately tripled

## O=c1[nH]c(=O)n([C@H]2C[C@H](O)[C@@H](CO)O2)cc1C(F)(F)F [FTD, trifluridine]
[7]; male SD rats, oral, repeated for 14 days, combination molar ratio FTD/compound 1=1/0.5
  Maximum tolerated dose (causing no death, expressed as FTD dose): 150 mg/kg
[9]; FTD 0.01 μg/ml
  Infection rate (%): 90%
[9]; FTD 0.1 μg/ml
  Infection rate (%): 59%
[9]; FTD 1 μg/ml
  Infection rate (%): 2%
[9]; FTD 10 μg/ml
  Infection rate (%): 0%
[9]; FTD 100 μg/ml
  Infection rate (%): 0%
[9]; FTD 1000 μg/ml
  Infection rate (%): 0%
[8]; male beagle dogs, oral, repeated for 14 days, combination molar ratio FTD/compound 1=1/0.5
  Maximum tolerated dose (causing no death, expressed as FTD dose): 6 mg/kg
